From ChEMBL document CHEMBL1201862, “PubChem BioAssay data set” (2004)
Activity calls are given as the source filed them.

Legend:
[1] = THP-1 cell cytotoxicity, dose response, cytotoxicity control for non-replicating M. tuberculosis project (AID 489025); format: functional
[2] = cells; format: functional, cell-based
[3] = target: T1, Trace amine-associated receptor 1 (Homo sapiens, UniProt Q96RJ0); assay: Fluorescence-based cell-based high throughput dose response assay to identify agonists of the human trace amine associated receptor 1 (TAAR1).; format: functional
T1 sequence (Q96RJ0 whole entry): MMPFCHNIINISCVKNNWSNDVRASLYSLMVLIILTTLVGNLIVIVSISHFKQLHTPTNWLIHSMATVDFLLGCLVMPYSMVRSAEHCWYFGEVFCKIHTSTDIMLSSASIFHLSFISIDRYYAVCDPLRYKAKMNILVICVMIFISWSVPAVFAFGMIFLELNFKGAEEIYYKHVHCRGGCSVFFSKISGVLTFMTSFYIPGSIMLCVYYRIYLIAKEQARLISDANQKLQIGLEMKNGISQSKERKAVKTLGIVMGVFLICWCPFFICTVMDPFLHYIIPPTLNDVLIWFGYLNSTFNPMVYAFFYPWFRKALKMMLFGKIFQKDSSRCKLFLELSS

[4] = target: T1, Trace amine-associated receptor 1; assay: Counterscreen for agonists of the human trace amine associated receptor 1 (hTAAR1): Fluorescence-based cell-based high throughput dose response assay to identify hTAAR1 agonist that also desensitize TAAR1 receptor response.; format: functional
[5] = cells; format: functional, cell-based; remark: listed apart in the source
[6] = target: Mu-type opioid receptor (Homo sapiens, UniProt P35372); format: functional, cell-based;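 also: U2OS cells with beta-arrestin recruitment to OPRM1 by beta-gal complementation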
Chain of Mu-type opioid receptor (P35372 whole entry): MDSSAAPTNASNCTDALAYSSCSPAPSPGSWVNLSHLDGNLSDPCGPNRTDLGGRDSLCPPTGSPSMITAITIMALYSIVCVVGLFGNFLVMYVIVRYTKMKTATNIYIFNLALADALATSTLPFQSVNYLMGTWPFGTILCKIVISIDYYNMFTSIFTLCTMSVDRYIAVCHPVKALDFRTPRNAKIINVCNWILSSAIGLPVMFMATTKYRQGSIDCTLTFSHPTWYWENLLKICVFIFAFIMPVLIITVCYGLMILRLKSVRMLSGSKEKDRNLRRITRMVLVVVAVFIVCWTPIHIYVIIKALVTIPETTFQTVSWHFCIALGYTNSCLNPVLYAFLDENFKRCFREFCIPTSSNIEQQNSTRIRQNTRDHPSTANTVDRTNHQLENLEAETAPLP

[7] = target: 5-hydroxytryptamine receptor 2A (Mus musculus, UniProt P35363); format: functional, cell-based;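 also: CHO-K1 cells with tagged receptor and beta-arrestin; agonist potency measured as compound-induced activation of the receptor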
Chain of 5-hydroxytryptamine receptor 2A (P35363 whole entry): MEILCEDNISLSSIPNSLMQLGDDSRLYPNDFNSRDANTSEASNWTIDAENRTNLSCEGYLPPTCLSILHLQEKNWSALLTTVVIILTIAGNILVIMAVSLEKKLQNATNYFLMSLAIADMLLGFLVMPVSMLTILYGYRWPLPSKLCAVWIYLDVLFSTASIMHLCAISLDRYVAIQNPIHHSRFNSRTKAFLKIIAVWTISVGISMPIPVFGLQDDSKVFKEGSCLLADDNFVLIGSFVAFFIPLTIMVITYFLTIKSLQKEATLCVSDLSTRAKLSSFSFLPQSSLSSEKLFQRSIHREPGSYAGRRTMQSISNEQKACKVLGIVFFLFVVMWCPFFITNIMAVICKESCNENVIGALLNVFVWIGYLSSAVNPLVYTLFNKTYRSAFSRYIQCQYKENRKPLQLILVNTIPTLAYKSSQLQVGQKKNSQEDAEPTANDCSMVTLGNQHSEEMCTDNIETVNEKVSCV

[8] = Luminescence Cell-Based Dose Confirmation HTS to Identify Activators of 5'UTR Stem-Loop Driven Alpha-Synuclein mRNA Translation in H4 Neuroglioblastoma Cells. [Related pubchem assays: 1829 (Project Summary), 1814 (Primary HTS)]; format: functional
[9] = Luminescence Cell-Based Dose Response HTS to Identify Activators of Luciferase Translation or Activity in H4 […] Cells. [Related pubchem assays: 1829 (Project Summary), 1814 (Primary HTS)]; format: functional
[10] = test system: H4; assay: Luminescence Cell-Based Dose Response HTS to Identify Activators of 5'UTR Stem-Loop Driven Prion Protein mRNA Translation in H4 Neuroglioblastoma Cells. [Related pubchem assays: 1829 (Project Summary), 1814 (Primary HTS)]; format: functional; conditions: Homo sapiens
[11] = target: Glucose-6-phosphate 1-dehydrogenase (Homo sapiens, UniProt P11413); assay: inhibition of Homo sapiens G6PD, dose series – biochemical, fluorescence, selectivity assay for P. falciparum G6PD inhibitor project, dose response (AID 504792); format: functional
Chain of Glucose-6-phosphate 1-dehydrogenase (P11413 whole entry): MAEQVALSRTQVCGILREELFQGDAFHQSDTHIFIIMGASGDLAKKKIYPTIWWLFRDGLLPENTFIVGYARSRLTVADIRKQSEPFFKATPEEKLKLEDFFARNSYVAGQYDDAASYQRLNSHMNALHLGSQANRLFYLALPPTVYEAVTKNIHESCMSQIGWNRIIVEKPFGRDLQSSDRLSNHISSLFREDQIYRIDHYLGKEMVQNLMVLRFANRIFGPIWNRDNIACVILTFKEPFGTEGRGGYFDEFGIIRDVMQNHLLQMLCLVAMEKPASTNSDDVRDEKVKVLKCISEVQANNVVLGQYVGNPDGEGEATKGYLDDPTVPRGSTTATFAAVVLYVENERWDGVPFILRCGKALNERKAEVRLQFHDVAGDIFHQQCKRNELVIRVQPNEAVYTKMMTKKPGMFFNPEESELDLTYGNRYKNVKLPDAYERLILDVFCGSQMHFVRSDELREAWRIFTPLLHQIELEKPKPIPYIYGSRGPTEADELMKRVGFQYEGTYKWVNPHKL

[12] = target: Genome polyprotein (dengue virus type 2, UniProt P29990); assay: flavivirus cap methylation enzyme inhibition – biochemical, confirmation dose response, primary screen (AID 588689); format: functional
Chain of Genome polyprotein (P29990 2492-3391 limits assumed): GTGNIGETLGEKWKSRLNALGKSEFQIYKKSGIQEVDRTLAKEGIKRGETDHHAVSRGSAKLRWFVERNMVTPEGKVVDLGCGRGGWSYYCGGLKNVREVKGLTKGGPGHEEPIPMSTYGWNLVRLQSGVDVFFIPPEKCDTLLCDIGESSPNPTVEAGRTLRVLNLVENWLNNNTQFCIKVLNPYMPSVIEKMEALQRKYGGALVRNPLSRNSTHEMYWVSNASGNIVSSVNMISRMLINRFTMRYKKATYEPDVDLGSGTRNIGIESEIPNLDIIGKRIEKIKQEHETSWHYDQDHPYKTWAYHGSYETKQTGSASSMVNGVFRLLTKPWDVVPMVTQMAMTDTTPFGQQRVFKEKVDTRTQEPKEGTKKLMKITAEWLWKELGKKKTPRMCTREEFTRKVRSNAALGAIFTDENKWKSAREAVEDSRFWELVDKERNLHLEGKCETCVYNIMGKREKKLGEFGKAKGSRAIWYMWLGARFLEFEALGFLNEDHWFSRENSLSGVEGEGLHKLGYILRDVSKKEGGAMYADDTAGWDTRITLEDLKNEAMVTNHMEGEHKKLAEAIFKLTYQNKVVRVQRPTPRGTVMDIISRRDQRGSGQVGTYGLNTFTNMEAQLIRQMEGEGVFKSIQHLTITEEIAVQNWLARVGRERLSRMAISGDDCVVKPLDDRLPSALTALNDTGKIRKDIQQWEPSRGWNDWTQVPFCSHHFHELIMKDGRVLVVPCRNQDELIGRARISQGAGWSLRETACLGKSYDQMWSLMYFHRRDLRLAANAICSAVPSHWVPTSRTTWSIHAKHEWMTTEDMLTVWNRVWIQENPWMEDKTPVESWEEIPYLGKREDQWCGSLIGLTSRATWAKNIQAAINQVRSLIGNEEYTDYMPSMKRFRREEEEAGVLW

[13] = target: Photoreceptor-specific nuclear receptor (Homo sapiens, UniProt Q9Y5X4); format: functional, cell-based;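 also: CHO-S cells with Gal4-NCOR and VP16-NR2E3 two-hybrid luciferase reporter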
Chain of Photoreceptor-specific nuclear receptor (Q9Y5X4 whole entry, the tested form may be a part): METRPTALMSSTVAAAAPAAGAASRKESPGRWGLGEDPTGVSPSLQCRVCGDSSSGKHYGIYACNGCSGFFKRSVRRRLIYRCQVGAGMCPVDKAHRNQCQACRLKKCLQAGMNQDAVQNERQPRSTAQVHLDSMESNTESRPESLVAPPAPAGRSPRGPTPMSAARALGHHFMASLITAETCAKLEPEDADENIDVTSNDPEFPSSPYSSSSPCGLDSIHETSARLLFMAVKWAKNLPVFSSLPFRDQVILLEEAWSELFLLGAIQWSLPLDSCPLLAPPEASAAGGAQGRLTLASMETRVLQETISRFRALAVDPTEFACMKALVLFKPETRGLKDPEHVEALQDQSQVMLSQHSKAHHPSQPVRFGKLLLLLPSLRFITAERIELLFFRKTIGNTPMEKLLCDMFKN

[14] = target: T2, Carboxy-terminal domain RNA polymerase II polypeptide A small phosphatase 1 (Homo sapiens, UniProt Q9GZU7); assay: CTDSP1 inhibitors, concentration-response, biochemical, absorbance readout, ultra-high-throughput screen actives (AID 540297); format: functional
T2 sequence (Q9GZU7 whole entry): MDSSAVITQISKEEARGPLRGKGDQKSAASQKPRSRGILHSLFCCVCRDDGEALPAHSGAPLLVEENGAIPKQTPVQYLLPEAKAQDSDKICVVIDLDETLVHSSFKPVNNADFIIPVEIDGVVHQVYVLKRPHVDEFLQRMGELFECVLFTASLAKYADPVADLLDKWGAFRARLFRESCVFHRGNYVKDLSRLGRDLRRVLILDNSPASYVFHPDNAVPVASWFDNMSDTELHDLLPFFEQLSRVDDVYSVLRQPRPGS

[15] = target: DNA (cytosine-5)-methyltransferase 1 (Homo sapiens, UniProt P26358); assay: inhibition of DNA methylation by DNMT1 – biochemical, fluorescent molecular beacon, confirmation (AID 602386); format: functional
Chain of DNA (cytosine-5)-methyltransferase 1 (P26358 whole entry): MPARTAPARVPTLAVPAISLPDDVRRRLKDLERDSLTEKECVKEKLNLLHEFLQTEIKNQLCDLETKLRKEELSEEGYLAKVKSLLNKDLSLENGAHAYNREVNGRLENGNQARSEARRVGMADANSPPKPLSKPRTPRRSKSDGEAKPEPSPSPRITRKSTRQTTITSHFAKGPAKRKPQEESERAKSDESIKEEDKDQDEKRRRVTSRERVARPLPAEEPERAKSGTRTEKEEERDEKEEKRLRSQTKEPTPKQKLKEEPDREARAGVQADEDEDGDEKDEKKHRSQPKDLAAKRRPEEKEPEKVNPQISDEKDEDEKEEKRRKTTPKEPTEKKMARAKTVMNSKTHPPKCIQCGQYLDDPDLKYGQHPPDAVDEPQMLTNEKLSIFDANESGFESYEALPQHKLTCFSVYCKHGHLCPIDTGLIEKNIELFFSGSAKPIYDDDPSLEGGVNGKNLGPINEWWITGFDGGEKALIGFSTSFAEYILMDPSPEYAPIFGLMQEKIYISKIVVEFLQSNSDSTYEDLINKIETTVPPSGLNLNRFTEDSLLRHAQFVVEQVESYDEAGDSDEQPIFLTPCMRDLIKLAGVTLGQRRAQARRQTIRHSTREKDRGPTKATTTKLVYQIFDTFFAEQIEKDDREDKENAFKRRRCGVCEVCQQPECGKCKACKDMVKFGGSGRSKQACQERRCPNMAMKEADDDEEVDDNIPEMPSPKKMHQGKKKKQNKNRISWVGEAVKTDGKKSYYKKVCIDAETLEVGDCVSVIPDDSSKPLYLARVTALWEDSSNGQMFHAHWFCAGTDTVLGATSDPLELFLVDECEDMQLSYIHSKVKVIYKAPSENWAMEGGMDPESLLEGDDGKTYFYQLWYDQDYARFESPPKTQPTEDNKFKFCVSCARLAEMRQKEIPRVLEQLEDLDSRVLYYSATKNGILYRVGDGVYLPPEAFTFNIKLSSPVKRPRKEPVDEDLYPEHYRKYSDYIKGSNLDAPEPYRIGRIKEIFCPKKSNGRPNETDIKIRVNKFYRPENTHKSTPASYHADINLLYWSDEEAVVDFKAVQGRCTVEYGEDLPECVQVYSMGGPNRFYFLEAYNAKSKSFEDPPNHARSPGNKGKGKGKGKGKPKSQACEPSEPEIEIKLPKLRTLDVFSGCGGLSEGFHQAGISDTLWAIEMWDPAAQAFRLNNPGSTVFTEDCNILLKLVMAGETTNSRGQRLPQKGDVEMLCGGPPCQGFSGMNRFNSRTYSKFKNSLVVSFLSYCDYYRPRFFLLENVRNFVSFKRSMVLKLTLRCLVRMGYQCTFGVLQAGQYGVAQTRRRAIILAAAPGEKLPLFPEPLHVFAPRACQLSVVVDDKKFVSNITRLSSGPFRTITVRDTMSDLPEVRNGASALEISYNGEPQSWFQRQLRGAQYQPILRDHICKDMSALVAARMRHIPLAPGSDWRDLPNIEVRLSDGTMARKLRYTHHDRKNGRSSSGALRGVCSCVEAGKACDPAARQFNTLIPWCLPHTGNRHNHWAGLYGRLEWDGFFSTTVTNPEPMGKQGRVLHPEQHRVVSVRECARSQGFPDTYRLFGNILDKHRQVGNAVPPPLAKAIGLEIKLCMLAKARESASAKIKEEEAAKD

[16] = viability loss in THP-1 monocytes – THP-1 cells, cytotoxicity control for Vif-APOBEC3G degradation inhibitor project, dose response (AID 1117359); format: functional; conditions: THP-1
[17] = Counterscreen for […] of the human trace amine associated receptor 1 (TAAR1): Fluorescence-based cell-based high throughput dose response assay to identify nonselective Ga16 agonists.; format: functional
[18] = target: T1, Trace amine-associated receptor 1; assay: Fluorescence-based cell-based high throughput dose response assay to identify antagonists of the human trace amine associated receptor 1 (TAAR1).; format: functional
[19] = Counterscreen for antagonists of the human trace amine associated receptor 1 (hTAAR1): Fluorescence-based cell-based high throughput dose response assay to identify nonselective Ga16 antagonists.; format: functional
[20] = target: T1, Trace amine-associated receptor 1; assay: Counterscreen for antagonists of the human trace amine associated receptor 1 (hTAAR1): Fluorescence-based cell-based high throughput dose response assay to identify TAAR1 Agonists.; format: functional

## COc1cc(C(=O)CCN2CCC(c3ccccc3)C2)cc(OC)c1OC (stereo not given)
[1]
  CC50: > 40 µM (active)
[2]
  IC50: > 29.9 µM (inactive)
[3]
  EC50: 0.242 µM (active)
[4]
  IC50: 2.35 µM (active)
[5]
  EC50: > 29.9 µM (inactive)

## COc1cccc(NC(=O)c2ccc(CN3CCN(c4ccccc4)CC3)cc2)c1
[6]
  EC50: 92.5 µM (inactive)
[7]
  EC50: 4.28 µM (active)

## CC(C)c1cc2c(c(O)c1O)[C@@]13CCCC(C)(C)C1CC2OC3=O (stereo not given in full)
[8]
  EC50: 71.2 µM (active)
[9]
  EC50: > 60 µM (not active)
[10]
  EC50: > 120 µM (not active)
[11]
  IC50: > 80 µM (inactive)
[12]
  IC50: 84.4 µM (active)
[13]
  IC50: 2.59 µM (active)

## COc1ccc(NC(=O)CN(C)C(=O)c2cc(-c3ccco3)nc3ccccc23)cc1
[14]
  IC50: 2.55 µM (active)
[15]
  IC50: 6.24 µM (active)
[16]
  CC50: > 40 µM (active)

## COc1cc(NC(=O)c2cc3ccccc3o2)c(OC)cc1Cl
[17]
  EC50: > 29.9 µM (inactive)
[18]
  IC50: 3.98 µM (active)
[19]
  IC50: > 29.9 µM (inactive)
[20]
  EC50: > 29.9 µM (inactive)
